Measurements reported in patent US8952024B2, “Herbicidal pyrimidone derivatives” (E I du Pont de Nemours and Company, priority 2009, dated 2015).

Experiments:
Format in all cases: in vivo
[1] = test system: barnyardgrass (Echinochloa crus-galli); assay: Test B flooded paddy test; conditions: for Plant response rating, Flood, Barnyardgrass: 250 g ai/ha, flooded paddy test, visual rating on 0 to 100 scale (0 no effect, 100 complete control) after 13 to 15 days; for Plant response rating, Barnyardgrass: Flood (flooded paddy test), 13 to 15 days
Summary of the method: (§1)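 Plants were grown to the 2-leaf stage, then pots were flooded to 3 cm above the soil and compounds were applied directly into the paddy water. That depth was held throughout. After 13 to 15 days in a greenhouse, injury was visually rated against controls on a 0–100 scale.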

[2] = test system: umbrella sedge (Cyperus difformis); assay: Test B flooded paddy test; conditions: for Plant response rating, Flood, Sedge, Umbrella: 250 g ai/ha, flooded paddy test, visual rating on 0 to 100 scale (0 no effect, 100 complete control) after 13 to 15 days; for Plant response rating, Sedge, Umbrella: Flood (flooded paddy test), 13 to 15 days
Summary of the method: as §1

[3] = test system: bermudagrass (Cynodon dactylon); assay: Test B pre-/postemergence plant response
Summary of the method: (§2)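 Ratings reflect visual comparison with untreated controls 13 to 15 days after application, from 0 (no effect) to 100 (complete control). Application was preemergence to seeded loam/sand soil or postemergence to 1- to 4-leaf plants, with compound in a non-phytotoxic, surfactant-containing solvent.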

[4] = test system: cocklebur (Xanthium strumarium); assay: Test B pre-/postemergence plant response
Summary of the method: as §2

[5] = test system: green foxtail (Setaria viridis); assay: Test B pre-/postemergence plant response
Summary of the method: as §2

[6] = test system: wheat (Triticum aestivum); assay: Test B pre-/postemergence plant response
Summary of the method: as §2

[7] = test system: yellow nutsedge (Cyperus esculentus); assay: Test B pre-/postemergence plant response
Summary of the method: as §2

[8] = test system: lambsquarters (Chenopodium album); assay: Test B pre-/postemergence plant response
Summary of the method: as §2

wild oat (Avena fatua) = assay: Test B pre-/postemergence plant response
Summary of the method: as §2

[9] = test system: morningglory (Ipomoea coccinea); assay: Test B pre-/postemergence plant response
Summary of the method: as §2

[10] = test system: goosegrass (Eleusine indica); assay: Test B pre-/postemergence plant response
Summary of the method: as §2

[11] = test system: large crabgrass (Digitaria sanguinalis); assay: Test B pre-/postemergence plant response
Summary of the method: as §2

[12] = 31 g ai/ha, scale of 0 to 100 where 0 is no effect and 100 is complete control
[13] = 62 g ai/ha, scale of 0 to 100 where 0 is no effect and 100 is complete control
[14] = 125 g ai/ha, scale 0 to 100, 0 is no effect, 100 is complete control
[15] = 31 g ai/ha, postemergence, scale 0 to 100, 0 is no effect, 100 is complete control
[16] = 250 g ai/ha, Preemergence, 0 to 100 scale
[17] = Postemergence, 62 g ai/ha, scale 0 (no effect) to 100 (complete control), 13 to 15 days
[18] = Postemergence, 125 g ai/ha, visual rating after 13 to 15 days, scale 0 (no effect) to 100 (complete control)
[19] = Postemergence, 250 g ai/ha, scale 0 to 100 (0 no effect, 100 complete control)
[20] = Preemergence, 31 g ai/ha, scale 0 to 100 (0 no effect, 100 complete control)
[21] = Preemergence, 62 g ai/ha, scale 0 to 100 (0 no effect, 100 complete control)
[22] = Preemergence, 125 g ai/ha, scale 0 to 100, 0 no effect, 100 complete control
[23] = Flood, 31 g ai/ha, scale 0 to 100 (0 no effect, 100 complete control)
[24] = Postemergence, 31 g ai/ha, 0 to 100 scale (0 no effect, 100 complete control)
[25] = Postemergence, 62 g ai/ha, scale 0 to 100 (0 no effect, 100 complete control)
[26] = Postemergence, 125 g ai/ha, scale 0 to 100 (0 no effect, 100 complete control)
[27] = Postemergence, 250 g ai/ha, scale 0 to 100 (0 no effect, 100 complete control), 13 to 15 days

For Cn1c(-c2ccccc2)ncc(C(=O)C2=C(O)CCCC2=O)c1=O [Compound 55], the “Plant response rating, Flood, Barnyardgrass” value [1] was 20, the “Plant response rating, Barnyardgrass” value [1, 12] was 0 and the “Plant response rating, Barnyardgrass” value [1, 13] was 20. The “Plant response rating, Barnyardgrass” value [1, 14] was 20, the “Plant response rating, Flood, Sedge, Umbrella” value [2] was 60 and the “Plant response rating, Sedge, Umbrella” value [2, 12] was 0. For the same molecule, the “Plant response rating, Sedge, Umbrella” value [2, 13] was 30, the “Plant response rating, Sedge, Umbrella” value [2, 14] was 40 and the “Plant response rating, Bermudagrass” value [3, 15] was 80. The “Plant response rating, Bermudagrass” value [3, 16] was 100, the “Plant response rating, Bermudagrass” value [3, 17] was 80 and the “Plant response rating, Bermudagrass” value [3, 18] was 85. The “Plant response rating, Bermudagrass” value [3, 19] was 90, the “Plant response rating, Bermudagrass” value [3, 20] was 95 and the “Plant response rating, Bermudagrass” value [3, 21] was 98. For the same molecule, the “Plant response rating, Bermudagrass” value [3, 22] was 100, the “Plant response rating, Cocklebur” value [4, 15] was 45 and the “Plant response rating, Cocklebur” value [4, 16] was 15. For the same molecule, the “Plant response rating, Cocklebur” value [4, 17] was 60, the “Plant response rating, Cocklebur” value [4, 18] was 65 and the “Plant response rating, Cocklebur” value [4, 19] was 75. For the same molecule, the “Plant response rating, Cocklebur” value [4, 20] was 0, the “Plant response rating, Cocklebur” value [4, 21] was 10 and the “Plant response rating, Cocklebur” value [4, 22] was 10. For the same molecule, the “Plant response rating, Foxtail, Green” value [5, 15] was 30, the “Plant response rating, Foxtail, Green” value [5, 16] was 0 and the “Plant response rating, Foxtail, Green” value [5, 17] was 40. The “Plant response rating, Foxtail, Green” value [5, 18] was 80, the “Plant response rating, Foxtail, Green” value [5, 19] was 80 and the “Plant response rating, Foxtail, Green” value [5, 20] was 0. For the same molecule, the “Plant response rating, Foxtail, Green” value [5, 21] was 0, the “Plant response rating, Foxtail, Green” value [5, 22] was 0 and the “Plant response rating, Wheat” value [6, 15] was 0. The “Plant response rating, Wheat” value [6, 17] was 0, the “Plant response rating, Wheat” value [6, 18] was 5 and the “Plant response rating, Wheat” value [6, 19] was 10. For the same molecule, the “Plant response rating, Wheat” value [6, 20] was 0, the “Plant response rating, Wheat” value [6, 21] was 0 and the “Plant response rating, Wheat” value [6, 22] was 0. For the same molecule, the “Plant response rating, Nutsedge, Yellow” value [7, 15] was 10, the “Plant response rating, Nutsedge, Yellow” value [7, 17] was 10 and the “Plant response rating, Nutsedge, Yellow” value [7, 18] was 55. For the same molecule, the “Plant response rating, Nutsedge, Yellow” value [7, 19] was 65, the “Plant response rating, Nutsedge, Yellow” value [7, 20] was 0 and the “Plant response rating, Nutsedge, Yellow” value [7, 21] was 45. The “Plant response rating, Nutsedge, Yellow” value [7, 22] was 45, the “Plant response rating, Lambsquarters” value [8, 15] was 80 and the “Plant response rating, Lambsquarters” value [8, 16] was 100. For the same molecule, the “Plant response rating, Lambsquarters” value [8, 17] was 80, the “Plant response rating, Lambsquarters” value [8, 18] was 95 and the “Plant response rating, Lambsquarters” value [8, 19] was 98. The “Plant response rating, Lambsquarters” value [8, 20] was 95, the “Plant response rating, Lambsquarters” value [8, 21] was 98 and the “Plant response rating, Lambsquarters” value [8, 22] was 98. For the same molecule, the “Plant response rating, Oat, Wild” value (wild oat (Avena fatua); [15]) was 0, the “Plant response rating, Oat, Wild” value (wild oat (Avena fatua); [17]) was 0 and the “Plant response rating, Oat, Wild” value (wild oat (Avena fatua); [18]) was 0. The “Plant response rating, Oat, Wild” value (wild oat (Avena fatua); [19]) was 5, the “Plant response rating, Oat, Wild” value (wild oat (Avena fatua); [20]) was 0 and the “Plant response rating, Oat, Wild” value (wild oat (Avena fatua); [21]) was 0. The “Plant response rating, Oat, Wild” value (wild oat (Avena fatua); [22]) was 0, the “Plant response rating, Morningglory” value [9, 15] was 55 and the “Plant response rating, Morningglory” value [9, 17] was 60. The “Plant response rating, Morningglory” value [9, 18] was 75, the “Plant response rating, Morningglory” value [9, 19] was 85 and the “Plant response rating, Morningglory” value [9, 20] was 0. The “Plant response rating, Morningglory” value [9, 21] was 0, the “Plant response rating, Morningglory” value [9, 22] was 45 and the “Plant response rating, Goosegrass” value [10, 15] was 45. The “Plant response rating, Goosegrass” value [10, 16] was 98, the “Plant response rating, Goosegrass” value [10, 17] was 60 and the “Plant response rating, Goosegrass” value [10, 18] was 65. The “Plant response rating, Goosegrass” value [10, 19] was 75, the “Plant response rating, Goosegrass” value [10, 20] was 45 and the “Plant response rating, Goosegrass” value [10, 21] was 95. The “Plant response rating, Goosegrass” value [10, 22] was 98, the “Plant response rating, Crabgrass, Large” value [11, 15] was 60 and the “Plant response rating, Crabgrass, Large” value [11, 16] was 98. For the same molecule, the “Plant response rating, Crabgrass, Large” value [11, 17] was 75, the “Plant response rating, Crabgrass, Large” value [11, 18] was 80 and the “Plant response rating, Crabgrass, Large” value [11, 19] was 85. The “Plant response rating, Crabgrass, Large” value [11, 20] was 10, the “Plant response rating, Crabgrass, Large” value [11, 21] was 60 and the “Plant response rating, Crabgrass, Large” value [11, 22] was 95.

COCCn1c(-c2ccsc2)ncc(C(=O)C2=C(O)C3CCC(C3)C2=O)c1=O (stereo not shown) [Compound 228] was tested, and the “Plant response rating, Flood, Barnyardgrass” value [1] was 80, the “Plant response rating, Barnyardgrass” value [1, 13] was 40 and the “Plant response rating, Barnyardgrass” value [1, 14] was 75. The “Barnyardgrass plant response rating” value [1, 23] was 15, the “Plant response rating, Flood, Sedge, Umbrella” value [2] was 85 and the “Plant response rating, Sedge, Umbrella” value [2, 13] was 75. The “Plant response rating, Sedge, Umbrella” value [2, 14] was 75, the “Sedge, Umbrella plant response rating” value [2, 23] was 65 and the “Plant response rating, Bermudagrass” value [3, 24] was 80. The “Plant response rating, Bermudagrass” value [3, 25] was 85, the “Plant response rating, Bermudagrass” value [3, 26] was 90 and the “Plant response rating, Bermudagrass” value [3, 27] was 95. The “Plant response rating, Cocklebur” value [4, 24] was 98, the “Plant response rating, Cocklebur” value [4, 25] was 98 and the “Plant response rating, Cocklebur” value [4, 26] was 100. The “Plant response rating, Cocklebur” value [4, 27] was 100, the “Plant response rating, Foxtail, Green” value [5, 24] was 85 and the “Plant response rating, Foxtail, Green” value [5, 25] was 90. The “Plant response rating, Foxtail, Green” value [5, 26] was 98, the “Plant response rating, Foxtail, Green” value [5, 27] was 100 and the “Plant response rating, Wheat” value [6, 24] was 0. The “Plant response rating, Wheat” value [6, 25] was 5, the “Plant response rating, Wheat” value [6, 27] was 35 and the “Plant response rating, Nutsedge, Yellow” value [7, 24] was 40. For the same molecule, the “Plant response rating, Nutsedge, Yellow” value [7, 25] was 45, the “Plant response rating, Nutsedge, Yellow” value [7, 26] was 60 and the “Plant response rating, Nutsedge, Yellow” value [7, 27] was 70. The “Plant response rating, Lambsquarters” value [8, 24] was 98, the “Plant response rating, Lambsquarters” value [8, 25] was 98 and the “Plant response rating, Lambsquarters” value [8, 26] was 100. The “Plant response rating, Lambsquarters” value [8, 27] was 100, the “Plant response rating, Oat, Wild” value (wild oat (Avena fatua); [24]) was 0 and the “Plant response rating, Oat, Wild” value (wild oat (Avena fatua); [25]) was 5. For the same molecule, the “Plant response rating, Oat, Wild” value (wild oat (Avena fatua); [27]) was 40, the “Plant response rating, Morningglory” value [9, 24] was 100 and the “Plant response rating, Morningglory” value [9, 25] was 100. For the same molecule, the “Plant response rating, Morningglory” value [9, 26] was 100, the “Plant response rating, Morningglory” value [9, 27] was 100 and the “Plant response rating, Goosegrass” value [10, 24] was 80. The “Plant response rating, Goosegrass” value [10, 25] was 80, the “Plant response rating, Goosegrass” value [10, 26] was 85 and the “Plant response rating, Goosegrass” value [10, 27] was 90. For the same molecule, the “Plant response rating, Crabgrass, Large” value [11, 24] was 80, the “Plant response rating, Crabgrass, Large” value [11, 25] was 98 and the “Plant response rating, Crabgrass, Large” value [11, 26] was 98. For the same molecule, the “Plant response rating, Crabgrass, Large” value [11, 27] was 98.
